Data reported in patent US9526680B2, “Method for searching for malodor control agent, malodor control agent, and malodor control method” (Kao Corporation, priority 2010, dated 2016).
Entries after “also recorded” stand apart in the source; their conditions may differ.

Experiments:
OR10A6 = target: T1, OR10A6 (Homo sapiens, UniProt Q8NH74); test: Luciferase reporter gene assay, OR10A6 expressed in HEK293 cells; type: cell-based; details: for Inhibition ratio of OR10A6 response: response to hexanoic acid, test substance added together with hexanoic acid, HEK293; for Response of OR10A6 to the odor substance: fold increase of luciferase emission, 1 mM hexanoic acid or 300 μM nonanoic acid, or concentration series up to 1000 μM
T1 construct: expressed in transfected cells; host or cells: HEK293
T1 sequence (Q8NH74 1-314): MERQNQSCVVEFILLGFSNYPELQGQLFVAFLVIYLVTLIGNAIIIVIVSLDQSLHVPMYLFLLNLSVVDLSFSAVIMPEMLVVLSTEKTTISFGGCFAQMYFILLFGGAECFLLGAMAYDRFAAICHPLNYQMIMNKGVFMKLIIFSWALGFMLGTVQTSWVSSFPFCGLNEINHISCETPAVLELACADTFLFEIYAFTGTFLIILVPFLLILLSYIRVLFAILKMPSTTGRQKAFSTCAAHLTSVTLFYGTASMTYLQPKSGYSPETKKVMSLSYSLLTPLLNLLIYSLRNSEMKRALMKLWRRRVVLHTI
Procedure: (§1) Cloning of human olfactory receptors was performed based on the sequence information registered in GenBank, through PCR with human genomic DNA female (G1521: Promega) as a template. Each of the genes amplified through PCR was inserted into a pENTR vector (Invitrogen) according to an instruction manual. Then, the gene-inserted vector was digested with NotI and AscI, and the obtained fragments were inserted into NotI and AscI sites located downstream of the Flag-Rho tag sequence in the pME18S vector.
(§2) Each of the 350 types of human olfactory receptors was expressed in HEK293 cells. A reaction solution having a composition shown in Table 2 was prepared on a clean bench, and left to stand for 15 minutes. The solution was dispensed to each well of a 96-well plate (BD). Subsequently, […] cells (100 μL, 3×10^5 cells/cm^2) were seeded in each well and cultured for 24 hours in an incubator at 37° C. and under 5% CO2 conditions.
(§3) The olfactory receptor expressed in HEK293 cell was conjugated with cell-intrinsic Gas to activate adenylate cyclase, and thereby the level of intracellular cAMP was increased. For the measurement of the response to odor in this study, the luciferase reporter gene assay was used, in which an increase in the amount of intracellular cAMP was monitored by using the emission value originating from firefly luciferase gene (fluc2P-CRE-hygro) as an indicator. Furthermore, a gene product obtained by fusing renilla luciferase gene in the downstream of CMV promoter (hRluc-CMV) was simultaneously introduced, and this was used as an internal standard for correcting an error in the transgenesis efficiency or the number of cells. The medium was removed from the culture prepared in the above-described section 3) by using a Pipetman, and 75 μl of a solution containing an odor substance (1 mM hexanoic acid or 300 μM nonanoic acid) prepared in CD293 medium (Invitrogen) was added thereto. The cells were cultured for 4 hours in a CO2 incubator, and the luciferase gene was sufficiently expressed in the cells. For the measurement of luciferase activity, the measurement was carried out by using a Dual-Glo™ luciferase assay system (Promega) according to the operation manual of the product. A value calculated by dividing the emission value, derived from a firefly luciferase induced by the stimulation with an odor substance, by the emission value in cells that were not-stimulated with an odor substance, was designated as a fold increase, and used as an index of response intensity.
(§4) OR2W1, OR10A6, OR51E1, OR51I2, and OR51L1 were respectively expressed in HEK293 cells by the same method as that used in Example 1, and a luciferase assay was carried out. In the luciferase assay, hexanoic acid was used as the odorous substance, and test substances were added together with hexanoic acid. The response of the olfactory receptors to hexanoic acid was measured, and a decrease in the receptor response to the addition of test substances was evaluated.
(§5) The inhibition ratios of the receptor response to test substances were calculated as follows. The emission value (Y) obtained from the cells in which the same receptors were introduced but no odor stimulation was conducted, was subtracted from the emission value derived from firefly luciferase (X) induced by odor stimulation with hexanoic acid alone. Similarly, the emission value (Y) obtained from the cells in which no odor stimulation was conducted, was subtracted from the emission value (Z) caused by stimulation with a mixture of hexanoic acid and a test substance. By the following calculation formula, the inhibitory activity of the test substance to receptor response was calculated based on the increment of the emission value (X−Y) caused by stimulation of hexanoic acid alone. Multiple independent experiments were performed in duplicate, and the average of each experiment was obtained. Inhibition ratio (%)={1−(Z−Y)/(X−Y)}×100

[1] = Sensory evaluation test of hexanoic acid odor inhibition; type: in vivo
Procedure: Cotton balls were introduced into a glass bottle (Hakuyo Glass Co., Ltd. No. 11, capacity 110 ml), and hexanoic acid diluted 100 times with propylene glycol, nonanoic acid diluted 10 times with propylene glycol, or isovaleric acid diluted 1000 times with propylene glycol, as a malodor, and a test substance were added dropwise in an amount of […] to the cotton balls. The glass bottle was left to stand overnight at room temperature, and the odor molecules were sufficiently volatilized in the glass bottle. A sensory evaluation test was carried out by a panel of three panelists (5 panelists for isovaleric acid), and while the intensity of odor in the case of adding dropwise the malodor alone was rated as 5, the intensity of the malodor in the case of incorporating a test substance was evaluated on the basis of a system of 20 grades from 0 point to 10 points (0.5 points per grade).
Regarding the test substance, florhydral (Givaudan SA), bourgeonal (Givaudan SA), hydroxycitronellal (Givaudan SA, International Flavors & Fragrances, Inc., and the like), 4-isopropylcyclohexanecarbaldehyde (synthesized according to a method described in JP-A-2-188549), 4-(2-methoxyphenyl)-2-methyl-2-butanol (JP-A-9-111281), florosa (Givaudan SA), isocyclocitral (Givaudan SA, International Flavors & Fragrances, Inc., and the like), tripral (International Flavors & Fragrances, Inc.), and Pollenal II (Kao Corp.), which had been diluted 100 times with propylene glycol, were used for hexanoic acid; florhydral that had been diluted 10 times with propylene glycol was used for nonanoic acid; and florhydral that had been diluted 1000 times with propylene glycol was used for isovaleric acid.

OR51E1 = target: T2, OR51E1 (Homo sapiens, UniProt Q8TCB6); test: Luciferase reporter gene assay, OR51E1 expressed in HEK293 cells; type: cell-based; details: for Response of OR51E1 to the odor substance: fold increase of luciferase emission, 1 mM hexanoic acid or 300 μM nonanoic acid, or concentration series up to 1000 μM
T2 construct: expressed in transfected cells; host or cells: HEK293
T2 sequence (Q8TCB6 1-318): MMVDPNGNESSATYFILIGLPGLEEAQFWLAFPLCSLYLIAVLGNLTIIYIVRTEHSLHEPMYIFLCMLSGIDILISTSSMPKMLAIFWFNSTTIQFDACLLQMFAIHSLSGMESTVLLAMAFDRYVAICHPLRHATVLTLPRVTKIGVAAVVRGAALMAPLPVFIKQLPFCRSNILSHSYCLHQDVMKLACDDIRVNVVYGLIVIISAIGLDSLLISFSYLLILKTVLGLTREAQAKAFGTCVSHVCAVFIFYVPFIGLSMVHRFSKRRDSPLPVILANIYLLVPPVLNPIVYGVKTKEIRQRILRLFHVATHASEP
Procedure: as §1, §2, §3, §4
as §5, with “(%)={1−(Z−Y)/(X−Y)}×100 […]” for “(%)={1−(Z−Y)/(X−Y)}×100”

OR51I2 = target: T3, OR51I2 (Homo sapiens, UniProt Q9H344); test: Luciferase reporter gene assay, OR51I2 expressed in HEK293 cells; type: cell-based; details: for Response of OR51I2 to the odor substance: fold increase of luciferase emission, 1 mM hexanoic acid or 300 μM nonanoic acid, or concentration series up to 1000 μM
T3 construct: expressed in transfected cells; host or cells: HEK293
T3 sequence (Q9H344 1-312): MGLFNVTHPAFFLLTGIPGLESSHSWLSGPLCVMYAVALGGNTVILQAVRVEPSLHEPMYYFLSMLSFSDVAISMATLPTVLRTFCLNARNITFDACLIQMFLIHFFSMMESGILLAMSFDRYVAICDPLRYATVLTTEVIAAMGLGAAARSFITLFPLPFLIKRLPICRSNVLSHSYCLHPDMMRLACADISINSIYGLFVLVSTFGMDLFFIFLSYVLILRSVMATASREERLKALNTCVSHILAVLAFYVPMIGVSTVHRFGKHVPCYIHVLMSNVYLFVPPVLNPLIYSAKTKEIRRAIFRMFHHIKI
Procedure: as §1, §2, §3, §4
as §5, with “(%)={1−(Z−Y)/(X−Y)}×100 […]” for “(%)={1−(Z−Y)/(X−Y)}×100”

OR51L1 = target: T4, OR51L1 (Homo sapiens, UniProt Q8NGJ5); test: Luciferase reporter gene assay, OR51L1 expressed in HEK293 cells; type: cell-based; details: for Response of OR51L1 to the odor substance: fold increase of luciferase emission, 1 mM hexanoic acid or 300 μM nonanoic acid, or concentration series up to 1000 μM
T4 construct: expressed in transfected cells; host or cells: HEK293
T4 sequence (Q8NGJ5 1-315): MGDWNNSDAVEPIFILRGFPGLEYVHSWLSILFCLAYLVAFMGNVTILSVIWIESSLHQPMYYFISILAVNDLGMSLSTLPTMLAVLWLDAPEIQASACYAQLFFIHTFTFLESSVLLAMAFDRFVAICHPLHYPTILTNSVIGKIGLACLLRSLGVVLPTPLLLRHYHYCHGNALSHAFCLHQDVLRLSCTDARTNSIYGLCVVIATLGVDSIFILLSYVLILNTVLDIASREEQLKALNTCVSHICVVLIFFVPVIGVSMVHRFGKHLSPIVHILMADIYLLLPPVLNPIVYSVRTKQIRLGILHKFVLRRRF
Procedure: as §1, §2, §3, §4
as §5, with “(%)={1−(Z−Y)/(X−Y)}×100 […]” for “(%)={1−(Z−Y)/(X−Y)}×100”

OR2W1 = target: T5, OR2W1 (Homo sapiens, UniProt Q9Y3N9); test: Luciferase reporter gene assay, OR2W1 expressed in HEK293 cells; type: cell-based; details: for Response of OR2W1 to the odor substance: fold increase of luciferase emission, 1 mM hexanoic acid or 300 μM nonanoic acid, or concentration series up to 1000 μM
T5 construct: expressed in transfected cells; host or cells: HEK293
T5 sequence (Q9Y3N9 1-320): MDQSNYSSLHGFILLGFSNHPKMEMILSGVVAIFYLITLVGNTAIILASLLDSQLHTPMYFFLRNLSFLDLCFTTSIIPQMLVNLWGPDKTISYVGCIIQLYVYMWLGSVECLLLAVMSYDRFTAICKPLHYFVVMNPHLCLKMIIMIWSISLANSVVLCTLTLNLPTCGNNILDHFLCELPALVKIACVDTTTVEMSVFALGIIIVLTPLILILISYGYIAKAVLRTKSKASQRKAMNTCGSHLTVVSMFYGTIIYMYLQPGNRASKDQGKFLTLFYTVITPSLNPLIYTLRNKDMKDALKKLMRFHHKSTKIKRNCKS
Procedure: as §1, §2, §3, §4
as §5, with “(%)={1−(Z−Y)/(X−Y)}×100 […]” for “(%)={1−(Z−Y)/(X−Y)}×100”

[2] = 1 mM hexanoic acid, test substance 3, 10, 30, 100, 300 μM (FIG. 4)

In the case of `CC(C)C1CCC(C)(C=O)CC1` (stereo not shown) [4-isopropyl-1-methylcyclohexanecarbaldehyde], the “Inhibition ratio of OR10A6 response” value (OR10A6) is reported as 1 (Inhibition ratio: 50% or higher).

In the case of `CC(C)CC1CC(C)(O)CCO1` (stereo not shown) [Florosa, tetrahydro-4-methyl-2-(2-methylpropyl)-2H-pyran-4-ol], the Intensity of odor ([1]; hexanoic acid odor, malodor alone rated as 5, 0 to 10 points, test substance diluted 100 times with propylene glycol, three panelists) is reported as 3.38, the “Inhibition of hexanoic acid odor (in words)” value ([1]; sensory test, test substance diluted 100 times with propylene glycol (FIG. 5, Table 4)) is reported as “inhibit the hexanoic acid odor” and the “Inhibition ratio of OR10A6 response” value (OR10A6) is reported as 2 (Inhibition ratio: 20% to 50%).

For `CC1=CC(C)C(CO)CC1` (stereo not shown) [floralol, reference compound], the “Inhibition of OR51E1 response to hexanoic acid (in words)” value (OR51E1; [2]) was “no response inhibiting effect”, the “Inhibition of OR51I2 response to hexanoic acid (in words)” value (OR51I2; [2]) was “no response inhibiting effect” and the “Inhibition of OR51L1 response to hexanoic acid (in words)” value (OR51L1; [2]) was “no response inhibiting effect”. For the same compound, the “Inhibition of OR10A6 response (in words)” value (OR10A6) was “no response inhibiting effect” and the “Inhibition of OR2W1 response to hexanoic acid (in words)” value (OR2W1; [2]) was “no response inhibiting effect”.

For `CCCCCC(=O)O` [hexanoic acid, reference compound], the “Response of OR51E1 to the odor substance” value (OR51E1) was “exhibited response; also recorded: concentration-dependent response”, the “Response of OR51I2 to the odor substance” value (OR51I2) was “exhibited response; also recorded: concentration-dependent response” and the “Response of OR51L1 to the odor substance” value (OR51L1) was “exhibited response; also recorded: concentration-dependent response”. The “Response of OR10A6 to the odor substance” value (OR10A6) was “exhibited response; also recorded: concentration-dependent response” and the “Response of OR2W1 to the odor substance” value (OR2W1) was “exhibited response; also recorded: concentration-dependent response”.

For `CCCCCCCCC(=O)O` [nonanoic acid, reference compound], the “Response of OR51E1 to the odor substance” value (OR51E1) was “exhibited response”, the “Response of OR10A6 to the odor substance” value (OR10A6) was “exhibited response” and the “Response of OR2W1 to the odor substance” value (OR2W1) was “exhibited response”.

For cresol [reference compound], the “Response of OR51E1 to the odor substance” value (OR51E1) was “do not respond”, the “Response of OR51I2 to the odor substance” value (OR51I2) was “do not respond” and the “Response of OR51L1 to the odor substance” value (OR51L1) was “do not respond”. For the same compound, the “Response of OR10A6 to the odor substance” value (OR10A6) was “do not respond” and the “Response of OR2W1 to the odor substance” value (OR2W1) was “do not respond”.
